Reference: patent US20070037831A1, “Methods of using PDE 5 inhibitors for the treatment of congestive heart failure” (priority 2004, published 2007)

Tests used:
PDE V = PDE V (Homo sapiens, UniProt O76074); experiment: PDE V inhibition (PDE V IC50); assay type: biochemical
ETA receptor = molecular target: T1, ETA receptor (Homo sapiens, UniProt P25101); details: among the ETA receptor antagonists; cited from earlier work
T1 sequence (P25101 21-427): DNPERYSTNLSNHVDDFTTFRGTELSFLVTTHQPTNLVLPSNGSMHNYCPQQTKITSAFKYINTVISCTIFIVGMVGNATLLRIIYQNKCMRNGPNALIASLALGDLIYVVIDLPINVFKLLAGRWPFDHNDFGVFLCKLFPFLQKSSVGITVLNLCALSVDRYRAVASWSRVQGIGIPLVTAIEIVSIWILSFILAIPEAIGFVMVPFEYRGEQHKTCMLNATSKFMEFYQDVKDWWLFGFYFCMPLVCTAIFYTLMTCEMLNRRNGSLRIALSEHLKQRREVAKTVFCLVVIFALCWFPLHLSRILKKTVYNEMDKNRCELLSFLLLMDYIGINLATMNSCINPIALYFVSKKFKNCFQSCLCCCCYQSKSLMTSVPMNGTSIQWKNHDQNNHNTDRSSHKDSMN

type V phosphodiesterase = molecular target: T2, type V phosphodiesterase (Homo sapiens, UniProt O76074); details: patients with heart failure, acute; cited from earlier work
T2 construct: endogenous in cells; host or cells: vasculature of patients with heart failure (in vivo)

IC50 (PDE V) | Compound | also measured
5 to 10 nM | Cn1c(=O)c2c(nc(NC3CCC3)n2Cc2ccc(O)cc2)n(C)c1=O [Compound 66] | 
10 to 15 nM | CCn1c(=O)c2c(nc(NC3CCCC3)n2Cc2ccc(OC)cc2)n(C)c1=O [Compound 24] | 
10 to 15 nM | COc1ccc(Cn2c(NC3CCCCC3)nc3c2c(=O)n(C)c(=O)n3C)cc1 [Compound 33] | 
10 to 15 nM | Cn1c(=O)c2c(nc(NC3CCCCC3)n2Cc2ccccc2F)n(C)c1=O [Compound 136] | 
15 to 100 nM | COc1ccc(Cn2c(NC3CCCC3)nc3c2c(=O)n(C)c(=O)n3C)cc1 [Compound 32] | 
15 to 100 nM | Cn1c(=O)c2c(nc(NC3CCCC3)n2Cc2ccccc2)n(C)c1=O [Compound 15] | 
15 to 100 nM | Cc1cccc(Cn2c(NC3CCCCC3)nc3c2c(=O)n(C)c(=O)n3C)c1 [Compound 131] | 
10 to 15 nM | Cn1c(=O)c2c(nc(NC3CCCCC3)n2Cc2ccc(O)c(Cl)c2)n(C)c1=O [Compound 161] | 
5 to 10 nM | Cc1ccc(Cn2c(NC3CCCCC3)nc3c2c(=O)n(C)c(=O)n3C)cc1 [Compound 132] | 
≤ 5 nM | Cn1c(=O)c2c(nc(NC3CCCCC3)n2Cc2ccc3c(c2)OCO3)n(C)c1=O [Compound 142] | 
15 to 100 nM | Cn1c(=O)c2c(nc(NC3CCCCC3)n2Cc2ccc(F)cc2)n(C)c1=O [Compound 138] | 
15 to 100 nM | CCn1c(=O)[nH]c2nc(NC3CCCCC3)n(Cc3ccc(OC)cc3)c2c1=O [Compound 92] | 
15 to 100 nM | COc1ccc(Cn2c(NC3CCCC3)nc3c2c(=O)n(C)c(=O)n3CC(C)C)cc1 [Compound 30] | 
15 to 100 nM | CCn1c(=O)c2c(nc(NC3CCCC3)n2Cc2ccc(OC)cc2)n(CC(C)C)c1=O [Compound 38] | 
5 to 10 nM | Cn1c(=O)c2c(nc(NC3CCCC3)n2Cc2ccc(O)cc2)n(C)c1=O [Compound 36] | 
15 to 100 nM | Cn1c(=O)c2c(nc(NC3CCCCC3)n2Cc2ccccc2)n(C)c1=O [Compound 16] | 
15 to 100 nM | COc1ccc(Cn2c(NC3CCC3)nc3c2c(=O)n(C)c(=O)n3C)cc1 [Compound 42] | 
10 to 15 nM | CCn1c(=O)[nH]c2nc(NC3CCCC3)n(Cc3ccc(OC)cc3)c2c1=O [Compound 93] | 
10 to 15 nM | CCn1c(=O)c2c(nc(NC3CCCCC3)n2Cc2ccc(OC)cc2)n(C)c1=O [Compound 23] | 
10 to 15 nM | CCn1c(=O)c2c(nc(NC3CCCCC3)n2Cc2ccc(OC)cc2)n(CC(C)C)c1=O [Compound 39] | 
15 to 100 nM | COc1ccc(Cn2c(NC3(CO)CCCC3)nc3c2c(=O)n(C)c(=O)n3C)cc1 [Compound 13] | 
5 to 10 nM | COc1ccc(Cn2c(=O)c3c(nc(NC4CCCC4)n3Cc3ccc(OC)cc3)n(C)c2=O)cc1 [Compound 22] | 
15 to 100 nM | COc1ccc(Cn2c(NC3CCCCC3)nc3c2c(=O)n(C)c(=O)n3CC(C)C)cc1 [Compound 31] | 
5 to 10 nM | COc1ccc(Cn2c(=O)c3c(nc(NC4CCCCC4)n3Cc3ccc(OC)cc3)n(C)c2=O)cc1 [Compound 21] | 

Further lines, the compound ahead of its results:

Compound | IC50 (PDE V) | also measured
CCn1c(=O)c2c(nc(NC3CCSCC3)n2Cc2ccc(OC)c(Cl)c2)n(CC)c1=O [Compound 197] | ≤ 5 nM | 
CCn1c(=O)[nH]c2nc(NC3CCCCC3)n(Cc3ccc(O)cc3)c2c1=O [Compound 94] | 10 to 15 nM | 
CCn1c(=O)c2c(nc(N[C@@H]3CCC[C@H]3O)n2Cc2ccc(OC)c(C)c2)n(CCO)c1=O [Compound 111] | 10 to 15 nM | 
CCn1c(=O)c2c(nc(NC3CCCCC3)n2Cc2cc3c(cc2Cl)OCO3)n(CCO)c1=O [Compound 108] | 10 to 15 nM | 
COc1ccc(Cn2c(NC3(CO)CCCC3)nc3c2c(=O)n(C)c(=O)n3CC(C)C)cc1 [Compound 18] | 15 to 100 nM | 
CCn1c(=O)c2c(nc(NC3(CO)CC=CC3)n2Cc2ccccc2)n(CC(C)C)c1=O [Compound 57] | 15 to 100 nM | 
CCn1c(=O)c2c(nc(NC3CCCCC3)n2Cc2ccccc2F)n(CC)c1=O [Compound 165] | 15 to 100 nM | 
CCn1c(=O)c2c(nc(N[C@@H]3CCCC[C@H]3O)n2Cc2ccc(OC)c(Br)c2)n(CCO)c1=O [Compound 185] | 15 to 100 nM | 
CCn1c(=O)c2c(nc(NC3CCCCC3)n2Cc2ccc(S(N)(=O)=O)cc2)n(CCO)c1=O [Compound 182] | 15 to 100 nM | 
COc1ccc(Cn2c(N[C@@H]3CCc4ccccc43)nc3c2c(=O)n(C)c(=O)n3C)cc1 [Compound 85] | 15 to 100 nM | 
CCn1c(=O)c2c(nc(NC3CCCCC3)n2Cc2ccc(OC(C)=O)cc2)n(CC)c1=O [Compound 89] | 5 to 10 nM | 
CCn1c(=O)c2c(nc(NC3CCCC3O)n2Cc2ccccc2)n(CC(C)C)c1=O (stereo not drawn) [Compound 58] | 15 to 100 nM | 
Cc1cc2c(cc1CC(=O)c1sccc1S(=O)(=O)Nc1onc(C)c1Cl)OCO2 [sitaxsentan] |  | selectivity over ETB (ETA receptor): particularly selective over ETB
CCn1c(=O)c2c(nc(N[C@@H]3CCC[C@H]3O)n2Cc2ccc(O)c(Cl)c2)n(CCO)c1=O [Compound 115] | 5 to 10 nM | 
CCn1c(=O)c2c(nc(NC3(CO)CC=CC3)n2Cc2ccc(OC)cc2)n(CC)c1=O [Compound 62] | ≤ 5 nM | 
CCn1c(=O)c2c(nc(NC3CCCCC3)n2Cc2cccc(Cl)c2)n(CC)c1=O [Compound 120] | 15 to 100 nM | 
Cn1c(=O)c2c(nc(NC3CC4CCC3C4)n2Cc2ccc(O)cc2)n(C)c1=O (stereo not drawn) [Compound 77] | 15 to 100 nM | 
CCn1c(=O)c2c(nc(NC3CCCCC3)n2Cc2ccccc2)n(CC)c1=O [Compound 29] | 10 to 15 nM | 
CCn1c(=O)c2c(nc(NC3CCCCC3)n2Cc2ccc(OC)c(C)c2)n(CCO)c1=O [Compound 110] | 5 to 10 nM | 
CCn1c(=O)c2c(nc(N[C@@H]3CCC[C@H]3O)n2Cc2cc(Br)c3c(c2)CCO3)n(CCO)c1=O [Compound 128] | 15 to 100 nM | 
CCn1c(=O)c2c(nc(N[C@@H]3CCC[C@H]3O)n2Cc2ccc(OC)c(Br)c2)n(CCO)c1=O [Compound 114] | ≤ 5 nM | 
CCCn1c(=O)n(CC)c(=O)c2c1nc(NC1CCCCC1)n2Cc1cccc(O)c1 [Compound 177] | ≤ 5 nM | 
CCn1c(=O)c2c(nc(NC3CCCCC3)n2Cc2ccc(C(=O)O)cc2)n(CC)c1=O [Compound 98] | 15 to 100 nM | 

Compound | IC50 (PDE V) | also measured
CCCn1c(=O)n(CC)c(=O)c2c1nc(NC1CCCCC1)n2Cc1ccc2c(c1)OCO2 [Compound 175] | 5 to 10 nM | 
CCn1c(=O)c2c(nc(NC3CCCCC3)n2Cc2ccc(C(=O)OC)cc2)n(CC)c1=O [Compound 99] | 5 to 10 nM | 
CCn1c(=O)c2c(nc(NC3CCOCC3)n2Cc2ccc(S(N)(=O)=O)c(Cl)c2)n(CC)c1=O [Compound 191] | ≤ 5 nM | 
CCCn1c(=O)n(CC)c(=O)c2c1nc(NC1CCCCC1)n2Cc1ccc(OC)c(Cl)c1 [Compound 171] | 5 to 10 nM | 
COc1ccc(Cn2c(N[C@@H]3CCC[C@@H]3O)nc3c2c(=O)n(C)c(=O)n3CC(C)C)cc1 [Compound 17] | 15 to 100 nM | 
CCn1c(=O)c2c(nc(N[C@@H]3CCC[C@@H]3O)n2Cc2ccccc2)n(CC)c1=O [Compound 14] | 15 to 100 nM | 
CCn1c(=O)c2c(nc(NC3CCOCC3)n2Cc2ccc(S(N)(=O)=O)c(Br)c2)n(CC)c1=O [Compound 190] | 5 to 10 nM | 
CCCc1nn(C)c2c(=O)[nH]c(-c3cc(S(=O)(=O)N4CCN(C)CC4)ccc3OCC)nc12 [Sildenafil] |  | endothelium dependent vasodilation (type V phosphodiesterase): acutely enhance endothelium dependent vasodilation
COc1ccc(Cn2c(=O)c3c(nc(NC4(CO)CC=CC4)n3Cc3ccc(OC)cc3)n(C)c2=O)cc1 [Compound 67] | ≤ 5 nM | 
CCn1c(=O)c2c(nc(NC3CCC(F)(F)CC3)n2Cc2ccc(OC)c(Br)c2)n(CC)c1=O [Compound 199] | 5 to 10 nM | 
CCn1c(=O)c2c(nc(NC3CCCCC3)n2Cc2ccc(S(N)(=O)=O)c(Br)c2)n(CCO)c1=O [Compound 184] | 15 to 100 nM | 
CCn1c(=O)c2c(nc(N[C@@H]3CCC[C@H]3O)n2Cc2ccc(S(N)(=O)=O)cc2)n(CC)c1=O [Compound 126] | 15 to 100 nM | 
CCn1c(=O)c2c(nc(NC3(CO)CCCC3)n2Cc2ccc(OC)cc2)n(CC(C)C)c1=O [Compound 41] | 15 to 100 nM | 
Cn1c(=O)[nH]c(=O)c2c1nc(NC1CCCCC1)n2Cc1ccc(O)cc1 [Compound 71] | 15 to 100 nM | 
CCn1c(=O)c2c(nc(NC3CCCCC3)n2Cc2ccc(S(N)(=O)=O)c(Br)c2)n(CC)c1=O [Compound 180] | 5 to 10 nM | 
CCn1c(=O)c2c(nc(NC3CCCCC3)n2Cc2ccc(O)c(C)c2)n(CCO)c1=O [Compound 112] | 10 to 15 nM | 
CCn1c(=O)c2c(nc(NC3CCCCC3)n2Cc2ccc(O)cc2)n(CC(C)C)c1=O [Compound 65] | ≤ 5 nM | 
CCn1c(=O)c2c(nc(NC3CCCCC3)n2Cc2ccc(S(N)(=O)=O)c(Cl)c2)n(CCO)c1=O [Compound 183] | 5 to 10 nM | 
CCn1c(=O)c2c(nc(NC3CCCCC3)n2Cc2ccc(OC)c(C)c2)n(CC)c1=O [Compound 166] | 15 to 100 nM | 
CCn1c(=O)c2c(nc(NC3CCCCC3)n2Cc2ccc(O)cc2)n(CC)c1=O [Compound 64] | ≤ 5 nM | 
Cn1c(=O)[nH]c(=O)c2c1nc(NC1CCCC1)n2Cc1ccc(O)cc1 [Compound 68] | 5 to 10 nM | 
CCCn1c(=O)n(CC)c(=O)c2c1nc(NC1CCCCC1)n2Cc1ccc(O)c(C)c1 [Compound 178] | ≤ 5 nM | 
